Converted amounts (≈) assume the structure as drawn.
How the values were obtained:
Cytochrome P450 1A2 = target: T1, Cytochrome P450 1A2 (Homo sapiens, UniProt P05177); assay: Induction of CYP1A2 in human hepatocytes assessed as increase in CYP1A2 mRNA level at 20 uM measured after 48 hrs by PCR analysis relative to control; type: ADME, cell-based, Hepatocyte
T1 sequence (P05177 whole entry): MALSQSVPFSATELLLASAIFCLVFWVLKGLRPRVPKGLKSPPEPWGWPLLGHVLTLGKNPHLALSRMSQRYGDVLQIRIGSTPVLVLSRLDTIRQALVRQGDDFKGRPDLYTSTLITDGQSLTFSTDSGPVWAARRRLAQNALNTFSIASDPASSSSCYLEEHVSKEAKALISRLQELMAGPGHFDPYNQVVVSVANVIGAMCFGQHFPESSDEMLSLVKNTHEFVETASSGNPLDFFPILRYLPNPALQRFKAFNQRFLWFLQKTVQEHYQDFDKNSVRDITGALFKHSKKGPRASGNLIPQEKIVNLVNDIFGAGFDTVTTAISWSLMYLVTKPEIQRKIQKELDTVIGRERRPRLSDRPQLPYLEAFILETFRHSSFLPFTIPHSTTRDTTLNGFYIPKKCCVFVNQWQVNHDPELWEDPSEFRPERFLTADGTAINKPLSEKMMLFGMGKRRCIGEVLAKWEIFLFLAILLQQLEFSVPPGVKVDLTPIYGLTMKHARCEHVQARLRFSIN

SARS-CoV-2 [1] = assay: Antiviral activity against SARS CoV-2 USA-WA1/2020 infected in po dosed B6.Cg-Tg(K18-ACE2)2Prlmn/J mouse assessed as reduction in viral load in lung administered orally twice daily and measured on day 4 post inoculation; type: functional, organism-based; conditions: Severe acute respiratory syndrome coronavirus 2, dose 100-500 mg/kg, time 4.0 day
[2] = Plasma protein binding in dog assessed as unbound fraction at 1 uM; type: ADME, cell-free, Canis lupus familiaris
[3] = Plasma stability in rhesus monkey assessed as epimerization; type: ADME, cell-free, Macaca mulatta
[4] = Oral bioavailability in human; type: ADME, organism-based; conditions: in vivo
[5] = Lipophilicity, logD of compound at pH 8 by HPLC analysis; type: physicochemical; conditions: buffer
[6] = target: T2, PXR (nuclear receptor subfamily 1 group I member 2) (Homo sapiens, UniProt O75469); assay: Activation of PXR (unknown origin) assessed as maximal activation at 30 uM relative to control; type: toxicity; conditions: read-out: Activity
T2 sequence (O75469 whole entry): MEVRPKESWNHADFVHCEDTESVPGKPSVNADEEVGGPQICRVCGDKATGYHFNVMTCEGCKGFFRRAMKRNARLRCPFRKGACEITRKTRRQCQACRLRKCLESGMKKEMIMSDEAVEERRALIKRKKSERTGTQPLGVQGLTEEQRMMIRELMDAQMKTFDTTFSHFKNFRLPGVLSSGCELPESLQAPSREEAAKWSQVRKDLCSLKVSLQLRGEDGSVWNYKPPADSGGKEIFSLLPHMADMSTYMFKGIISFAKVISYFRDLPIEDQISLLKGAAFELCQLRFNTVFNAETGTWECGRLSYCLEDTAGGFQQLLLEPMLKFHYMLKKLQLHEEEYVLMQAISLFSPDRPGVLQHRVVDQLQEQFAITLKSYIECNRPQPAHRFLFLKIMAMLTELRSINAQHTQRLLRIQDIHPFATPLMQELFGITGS

[7] = Aqueous solubility of compound; type: physicochemical; conditions: buffer
Cytochrome P450 2C9 = Cytochrome P450 2C9 (Homo sapiens, UniProt P11712); assay: Reversible inhibition of CYP2C9 in human liver microsomes using diclofenac as substrate incubated for 5 mins in presence of NADPH-generating system by LC-MS/MS analysis; type: ADME, Microsome
Sequence of Cytochrome P450 2C9 (P11712 whole entry): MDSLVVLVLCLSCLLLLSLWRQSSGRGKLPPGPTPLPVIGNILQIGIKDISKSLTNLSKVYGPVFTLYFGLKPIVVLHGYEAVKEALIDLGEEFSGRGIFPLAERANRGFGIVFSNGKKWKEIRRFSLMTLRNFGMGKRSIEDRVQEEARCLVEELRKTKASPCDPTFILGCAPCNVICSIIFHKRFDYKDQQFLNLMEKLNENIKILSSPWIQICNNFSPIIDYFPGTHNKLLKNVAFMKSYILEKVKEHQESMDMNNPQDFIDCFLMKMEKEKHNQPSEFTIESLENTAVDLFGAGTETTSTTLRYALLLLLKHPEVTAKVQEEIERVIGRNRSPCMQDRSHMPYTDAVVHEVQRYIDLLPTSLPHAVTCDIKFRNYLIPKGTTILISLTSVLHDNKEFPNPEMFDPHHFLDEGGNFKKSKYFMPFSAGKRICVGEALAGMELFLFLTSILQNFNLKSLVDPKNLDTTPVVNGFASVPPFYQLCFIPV

CYP3A [8] = target: T3, CYP3A (Homo sapiens, UniProt P08684+P20815+P24462+Q9HB55); assay: Time dependent inhibition of CYP3A in human liver microsomes assessed as inhibition constant; type: ADME, Microsome
[9] = Oral bioavailability in rat at 3 mg/kg measured upto 24 hrs by LC-MS analysis; type: ADME, organism-based; conditions: in vivo
CYP3A [10] = target: T3, CYP3A; assay: Reversible inhibition of CYP3A in human liver microsomes incubated for 5 mins in presence of NADPH-generating system by LC-MS/MS analysis; type: ADME, Microsome
SARS-CoV-2 [11] = assay: Antiviral activity against ancestral SARS-CoV-2 WA1/2020 infected in human A549-hACE2-TMPRSS2 cells assessed as inhibition of virus induced cytopathic effect incubated for 72 hrs by celltiter glo assay; type: functional, organism-based; conditions: Severe acute respiratory syndrome coronavirus 2, WA1/2020, A549-hACE2-TMPRSS2, 72 h
[12] = Plasma stability in dog assessed as epimerization at 1 uM measured upto 3 hrs by LC-MS/MS analysis; type: ADME, cell-free, Canis lupus familiaris
SARS-CoV-2 [13] = assay: Antiviral activity against SARS CoV-2 USA-WA1/2020 infected in B6.Cg-Tg(K18-ACE2)2Prlmn/J mouse assessed as log reduction in plaque-forming units in lung at […], po bid measured on day 4 post inoculation; type: functional, Severe acute respiratory syndrome coronavirus 2; conditions: time 4 day
[14] = target: T4, Nuclear receptor subfamily 1 group I member 2 (Homo sapiens, UniProt O75469); assay: Activation of PXR (unknown origin); type: toxicity
T4 sequence (O75469 whole entry): T2 sequence (O75469 whole entry)

Cytochrome P450 2B6 = target: T5, Cytochrome P450 2B6 (Homo sapiens, UniProt P20813); assay: Reversible inhibition of CYP2B6 in human liver microsomes using bupropion as substrate incubated for 5 mins in presence of NADPH-generating system by LC-MS/MS analysis; type: ADME, Microsome
T5 sequence (P20813 whole entry): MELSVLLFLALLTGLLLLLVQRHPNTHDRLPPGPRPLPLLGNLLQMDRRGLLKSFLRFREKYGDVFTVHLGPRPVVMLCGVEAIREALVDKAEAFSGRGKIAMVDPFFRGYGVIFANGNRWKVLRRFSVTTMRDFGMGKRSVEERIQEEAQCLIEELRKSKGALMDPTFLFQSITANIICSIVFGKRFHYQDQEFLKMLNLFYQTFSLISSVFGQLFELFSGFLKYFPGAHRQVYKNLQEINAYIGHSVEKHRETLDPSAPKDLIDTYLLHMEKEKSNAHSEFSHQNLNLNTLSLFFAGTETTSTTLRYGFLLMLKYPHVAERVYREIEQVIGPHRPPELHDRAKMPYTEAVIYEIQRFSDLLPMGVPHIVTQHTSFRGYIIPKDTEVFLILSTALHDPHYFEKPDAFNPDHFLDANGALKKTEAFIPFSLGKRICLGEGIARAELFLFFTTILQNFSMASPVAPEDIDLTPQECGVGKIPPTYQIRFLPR

[15] = Plasma stability in human assessed as epimerization at 1 uM measured upto 3 hrs by LC-MS/MS analysis; type: ADME, cell-free
[16] = MRT in dog at 3 mg/kg, po or 1 mg/kg, iv measured upto 24 hrs by LC-MS analysis; type: ADME, organism-based, Canis lupus familiaris; conditions: in vivo
[17] = Apparent permeability in MDCK cells; type: ADME, cell-based, Canis lupus familiaris; conditions: dog
[18] = Plasma stability in rat assessed as epimerization at 1 uM measured upto 3 hrs by LC-MS/MS analysis; type: ADME, cell-free
Cytochrome P450 2D6 = Cytochrome P450 2D6 (Homo sapiens, UniProt P10635); assay: Reversible inhibition of CYP2D6 in human liver microsomes using dextromethorphan as substrate incubated for 5 mins in presence of NADPH-generating system by LC-MS/MS analysis; type: ADME, Microsome
Sequence of Cytochrome P450 2D6 (P10635 whole entry): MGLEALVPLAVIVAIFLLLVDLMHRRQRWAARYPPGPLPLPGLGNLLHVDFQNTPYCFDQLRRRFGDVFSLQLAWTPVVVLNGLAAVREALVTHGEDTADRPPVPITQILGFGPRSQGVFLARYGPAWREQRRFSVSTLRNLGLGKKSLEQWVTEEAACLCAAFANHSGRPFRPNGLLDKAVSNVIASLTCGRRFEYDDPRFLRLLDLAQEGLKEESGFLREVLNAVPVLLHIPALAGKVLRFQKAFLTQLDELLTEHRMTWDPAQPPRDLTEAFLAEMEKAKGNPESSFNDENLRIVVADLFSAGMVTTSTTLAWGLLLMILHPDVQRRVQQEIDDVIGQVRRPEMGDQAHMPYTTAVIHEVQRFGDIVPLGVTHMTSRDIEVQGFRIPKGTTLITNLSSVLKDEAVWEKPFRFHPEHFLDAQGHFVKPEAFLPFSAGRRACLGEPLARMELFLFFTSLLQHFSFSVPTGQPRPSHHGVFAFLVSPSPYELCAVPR

[19] = Plasma protein binding in rat assessed as free fraction at 1 uM; type: ADME, cell-free

Q: What does the source list for CNC(=O)C(=O)[C@H](CCC(C)(F)F)NC(=O)[C@@H]1[C@H]2CCC[C@H]2CN1C(=O)[C@@H](NC(=O)OC)C(C)(C)C?
A: Activity (Cytochrome P450 1A2): < 1%; Activity (SARS-CoV-2 [1]): Dose-Dependent Effect; fraction unbound at 1 µM [2]: 0.09; Stability [3]: Unstable; bioavailability [4]: 67%; logD [5]: 2.49; Emax at 30 µM [6]: 29%; solubility [7]: 4500 µg/mL (≈ 8.71 mM); IC50 (Cytochrome P450 2C9): > 200 µM; Ki (CYP3A [8]): 110 µM; bioavailability [9]: 65%; IC50 at 5 min (CYP3A [10]): 118 µM; IC50 (SARS-CoV-2 [11]): 0.444 µM; Stability [12]: Unstable; log(activity) (SARS-CoV-2 [13]): 1.7; EC50 [14]: > 30 µM; IC50 (Cytochrome P450 2B6): 159 µM; Stability [15]: Unstable; MRT [16]: 2.5 h; Papp [17]: 5.7 ×10⁻⁶ cm/s; Stability [18]: Unstable; IC50 (Cytochrome P450 2D6): > 200 µM; fraction unbound at 1 µM [19]: 0.1

Reference: ChEMBL document CHEMBL5528064, “Invention of MK-7845, a SARS-CoV-2 3CL Protease Inhibitor Employing a Novel Difluorinated Glutamine Mimic” (J Med Chem, 2024)
